≈ marks a conversion by molar mass, not a printed value.
What was measured:
[1] = system: Staphylococcus aureus; assay: Antibacterial activity against Staphylococcus aureus ATCC 29213; assay type: functional
[2] = system: HEp-2; assay: Cytotoxicity against Hep2 cell line; assay type: functional; settings: Homo sapiens
[3] = biological target: DNA topoisomerase 4 subunit A (Staphylococcus aureus, UniProt P0C1U9); assay: Inhibitory activity against Staphylococcus aureus ATCC 29213 wild type Topo 4
[4] = system: Staphylococcus aureus; assay: Antibacterial activity against methicillin-resistant Staphylococcus aureus ATCC 700699; assay type: functional
[5] = system: Escherichia coli; assay: Antibacterial activity against Escherichia coli ATCC 25922; assay type: functional
[6] = system: Salmonella typhimurium; assay: Antibacterial activity against Salmonella Typhimurium ATCC 14028; assay type: functional, Salmonella enterica subsp. enterica serovar Typhimurium; settings: Salmonella enterica
[7] = system: Streptococcus pyogenes; assay: Antibacterial activity against Streptococcus pyogenes ATCC 19615; assay type: functional
[8] = system: Pseudomonas aeruginosa; assay: Antibacterial activity against Pseudomonas aeruginosa ATCC 27853; assay type: functional
[9] = system: Klebsiella pneumoniae; assay: Antibacterial activity against Klebsiella pneumoniae ATCC 13883; assay type: functional
[10] = system: Stenotrophomonas maltophilia; assay: Antibacterial activity against Stenotrophomonas maltophilia ATCC 13637; assay type: functional
[11] = system: Streptococcus pneumoniae; assay: Antibacterial activity against Streptococcus pneumoniae ATCC 49619; assay type: functional
[12] = system: Moraxella catarrhalis; assay: Antibacterial activity against Moraxella catarrhalis ATCC 8176; assay type: functional
[13] = system: Enterococcus faecalis; assay: Antibacterial activity against Enterococcus faecalis ATCC 29212; assay type: functional
[14] = system: Haemophilus influenzae; assay: Antibacterial activity against Haemophilus influenzae type b ACH-0056; assay type: functional
[15] = system: Enterococcus faecium; assay: Antibacterial activity against Enterococcus faecium ATCC 49032; assay type: functional

Sequence of DNA topoisomerase 4 subunit A (P0C1U9 whole entry): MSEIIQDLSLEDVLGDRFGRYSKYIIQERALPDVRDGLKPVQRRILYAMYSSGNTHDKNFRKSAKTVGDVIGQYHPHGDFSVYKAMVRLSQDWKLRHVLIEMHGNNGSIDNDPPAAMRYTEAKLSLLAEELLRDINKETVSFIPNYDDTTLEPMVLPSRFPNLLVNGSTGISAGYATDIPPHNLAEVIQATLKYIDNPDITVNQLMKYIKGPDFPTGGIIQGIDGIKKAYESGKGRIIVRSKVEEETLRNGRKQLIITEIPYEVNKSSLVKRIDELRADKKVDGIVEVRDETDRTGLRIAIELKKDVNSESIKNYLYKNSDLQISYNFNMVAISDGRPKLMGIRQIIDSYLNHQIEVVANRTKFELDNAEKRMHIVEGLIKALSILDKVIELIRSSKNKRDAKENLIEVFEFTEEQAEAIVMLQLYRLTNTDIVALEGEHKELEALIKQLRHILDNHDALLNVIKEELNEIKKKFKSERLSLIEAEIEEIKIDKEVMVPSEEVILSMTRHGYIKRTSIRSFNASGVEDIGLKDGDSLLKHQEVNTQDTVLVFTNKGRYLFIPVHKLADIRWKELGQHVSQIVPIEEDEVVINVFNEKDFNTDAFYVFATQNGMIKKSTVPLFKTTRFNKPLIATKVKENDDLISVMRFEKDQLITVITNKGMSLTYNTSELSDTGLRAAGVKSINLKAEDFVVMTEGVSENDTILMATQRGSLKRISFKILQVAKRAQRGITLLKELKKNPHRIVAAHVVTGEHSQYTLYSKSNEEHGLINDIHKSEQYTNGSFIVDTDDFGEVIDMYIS

Compound	MIC [1] [µg/mL]	CC50 [2] [µM]	IC50 [3] [µM]	MIC [4] [µg/mL]	MIC [5] [µg/mL]	MIC [6] [µg/mL]	MIC [7] [µg/mL]	MIC [8] [µg/mL]	MIC [9] [µg/mL]	MIC [10] [µg/mL]	MIC [11] [µg/mL]	MIC [12] [µg/mL]	MIC [13] [µg/mL]	MIC [14] [µg/mL]	MIC [15] [µg/mL]
COc1ccc(-c2cc3c(cc2F)c(=O)c2c(=O)[nH]sc2n3C2CC2)c(OC)n1	0.046 (≈ 0.111 µM)	98	16	8 (≈ 19.4 µM)	2 (≈ 4.84 µM)										
Cc1ccc(-c2cc3c(cc2F)c(=O)c2c(=O)[nH]sc2n3C2CC2)cn1	0.0037 (≈ 0.0101 µM)	31	8.5	1 (≈ 2.72 µM)	0.037 (≈ 0.101 µM)										
O=c1[nH]sc2c1c(=O)c1cc(F)c(-c3ccc4cncnc4c3)cc1n2C1CC1	0.06 (≈ 0.148 µM)	> 100	29	> 64	4 (≈ 9.89 µM)										
Cc1ccc(-c2cc3c(cc2F)c(=O)c2c(=O)[nH]sc2n3C2CC2)nc1	0.044 (≈ 0.12 µM)	51	14	32 (≈ 87.1 µM)	0.12 (≈ 0.327 µM)										
Cc1ncccc1-c1cc2c(cc1F)c(=O)c1c(=O)[nH]sc1n2C1CC1	0.13 (≈ 0.354 µM)	12	3.5	1 (≈ 2.72 µM)	0.51 (≈ 1.39 µM)										
O=c1[nH]sc2c1c(=O)c1cc(F)c(-c3cncc(C4CCCCN4)c3)cc1n2C1CC1 (stereo not given)	0.12 (≈ 0.275 µM)	6	5	8 (≈ 18.3 µM)	0.46 (≈ 1.05 µM)										
O=c1[nH]sc2c1c(=O)c1cc(F)c(-c3ccc4ncccc4c3)cc1n2C1CC1	0.0032 (≈ 0.00793 µM)	> 100	3.2	1 (≈ 2.48 µM)	0.13 (≈ 0.322 µM)										
O=c1[nH]sc2c1c(=O)c1cc(F)c(-c3ccccc3)cc1n2C1CC1	0.0035 (≈ 0.00993 µM)	> 100	6.3	16 (≈ 45.4 µM)	0.06 (≈ 0.17 µM)										
Cc1ccnc(-c2cc3c(cc2F)c(=O)c2c(=O)[nH]sc2n3C2CC2)c1	0.06 (≈ 0.163 µM)	> 100	16	32 (≈ 87.1 µM)	0.25 (≈ 0.68 µM)										
O=c1[nH]sc2c1c(=O)c1cc(F)c(-c3ccncc3)cc1n2C1CC1	0.0035 (≈ 0.0099 µM)		2.2	1 (≈ 2.83 µM)	0.028 (≈ 0.0792 µM)										
O=c1[nH]sc2c1c(=O)c1cc(F)c(-c3cccc4cnccc34)cc1n2C1CC1	0.016 (≈ 0.0397 µM)	45	23	> 64	0.061 (≈ 0.151 µM)										
O=c1[nH]sc2c1c(=O)c1cc(F)c(-c3ccnc(F)c3)cc1n2C1CC1	0.0074 (≈ 0.0199 µM)	> 100	19	1 (≈ 2.69 µM)	0.059 (≈ 0.159 µM)										
O=c1[nH]sc2c1c(=O)c1cc(F)c(-c3ccc4[nH]ccc4c3)cc1n2C1CC1	0.004 (≈ 0.0102 µM)	> 82	> 40	2 (≈ 5.11 µM)	0.059 (≈ 0.151 µM)										
Cc1cc(-c2cc3c(cc2F)c(=O)c2c(=O)[nH]sc2n3C2CC2)cc(C)n1	0.0038 (≈ 0.00996 µM)	50	48	0.25 (≈ 0.655 µM)	0.031 (≈ 0.0813 µM)										
O=c1[nH]sc2c1c(=O)c1cc(F)c(-c3cccc4ncccc34)cc1n2C1CC1	0.016 (≈ 0.0397 µM)		33	2 (≈ 4.96 µM)	0.016 (≈ 0.0397 µM)	0.5 (≈ 1.24 µM)	0.25 (≈ 0.62 µM)	2 (≈ 4.96 µM)	0.5 (≈ 1.24 µM)	4 (≈ 9.91 µM)	0.061 (≈ 0.151 µM)	0.0081 (≈ 0.0201 µM)	0.125 (≈ 0.31 µM)	0.028 (≈ 0.0694 µM)	0.25 (≈ 0.62 µM)
O=c1[nH]sc2c1c(=O)c1cc(F)c(-c3cncnc3)cc1n2C1CC1	0.025 (≈ 0.0705 µM)	18	3.3	8 (≈ 22.6 µM)	0.12 (≈ 0.339 µM)										
COc1ccc(-c2cc3c(cc2F)c(=O)c2c(=O)[nH]sc2n3C2CC2)cn1	0.023 (≈ 0.06 µM)	> 100	26	16 (≈ 41.7 µM)	0.015 (≈ 0.0391 µM)										
COc1ncc(-c2cc3c(cc2F)c(=O)c2c(=O)[nH]sc2n3C2CC2)c(OC)n1	0.019 (≈ 0.0458 µM)	> 100	42	1 (≈ 2.41 µM)	0.14 (≈ 0.338 µM)	0.125 (≈ 0.302 µM)	0.079 (≈ 0.191 µM)	> 64	0.5 (≈ 1.21 µM)	2 (≈ 4.83 µM)	0.079 (≈ 0.191 µM)	0.021 (≈ 0.0507 µM)	0.058 (≈ 0.14 µM)	0.14 (≈ 0.338 µM)	0.17 (≈ 0.41 µM)
O=C(O)c1cn(C2CC2)c2cc(N3CCNCC3)c(F)cc2c1=O [CIPROFLOXACIN]	0.22 (≈ 0.664 µM)	> 100		32 (≈ 96.6 µM)		0.018 (≈ 0.0543 µM)	0.28 (≈ 0.845 µM)		0.033 (≈ 0.0996 µM)	0.28 (≈ 0.845 µM)	0.56 (≈ 1.69 µM)	0.033 (≈ 0.0996 µM)	0.56 (≈ 1.69 µM)	0.018 (≈ 0.0543 µM)	2 (≈ 6.04 µM)
COc1c(N2C[C@@H]3CCCN[C@@H]3C2)c(F)cc2c(=O)c(C(=O)O)cn(C3CC3)c12 [MOXIFLOXACIN]	0.061 (≈ 0.152 µM)	> 100	0.8	2 (≈ 4.98 µM)	0.013 (≈ 0.0324 µM)	0.061 (≈ 0.152 µM)	0.061 (≈ 0.152 µM)	1 (≈ 2.49 µM)	0.031 (≈ 0.0772 µM)	0.031 (≈ 0.0772 µM)	0.125 (≈ 0.311 µM)	0.061 (≈ 0.152 µM)	0.125 (≈ 0.311 µM)	0.013 (≈ 0.0324 µM)	0.125 (≈ 0.311 µM)

Reference: ChEMBL document CHEMBL1138996, “Biological evaluation of isothiazoloquinolones containing aromatic heterocycles at the 7-position: In vitro activity of a series of potent antibacterial agents that are effective against methicillin-resistant Staphylococcus aureus” (Bioorg Med Chem Lett, 2006)
